Reference: PMC9530963, “A cathelicidin antimicrobial peptide from Hydrophis cyanocinctus inhibits Zika virus infection by downregulating expression of a viral entry factor” (The Journal of Biological Chemistry, 2022)

Legend:
[1] = test system: AXL; experiment: AXL level in U251 cells (Western blot, immunofluorescence); assay type: cell-based, Homo sapiens; details: 1.25, 2.5, and 5 μM, 24 h, with and without ZIKV challenge
Protocol: (§1) Figure 5 Hc-CATH downregulates AXL in U251 cell.A, schematic diagram of B and C. B, U251 cells were seeded in 24-well plates (5 × 10^4 cells/well) and cultured in DMEM containing 2% FBS. Hc-CATH (1.25, 2.5, and 5 μM) or same volume of PBS (peptide solvent) was added to cells and incubated at 37 °C for 24 h. The level of AXL was tested by Western blot. C, U251 cells were seeded in 8-well cover slip chambers (5 × 10^4 cells/well) and cultured in DMEM containing 2% FBS. Hc-CATH (1.25, 2.5, and 5 μM) or PBS was added to cells and incubated at 37 °C for 24 h. The level of AXL was tested by immunofluorescence staining. The scale bar represents 50 μm. D, schematic diagram of E–G. E–G, U251 cells were seeded in 24-well plates (5 × 10^4 cells/well) and cultured in DMEM containing 2% FBS. Hc-CATH (1.25, 2.5, and 5 μM) or PBS was added to cells and incubated at 37 °C for 2 h. Cells were washed with PBS and incubated with ZIKV (MOI = 1). After incubation at 37 °C for 2 h, cells were washed with PBS and cultured in DMEM containing 2% FBS.
(§2) The effect of Hc-CATH on AXL was further confirmed in A549 and U251 cells. A549 or U251 cells were incubated with Hc-CATH (1.25, 2.5, and 5 μM) or PBS at 37 °C for 24 h, and the level of AXL was detected by WB and IF, respectively. Upon ZIKV challenge, A549 or U251 cells were incubated with Hc-CATH (1.25, 2.5, and 5 μM) or PBS at 37 °C for 2 h. […]

[2] = test system: ZIKV; experiment: Binding of Hc-CATH to ZIKV (ELISA); parameters: species or system ZIKV strain PRVABC59; details: plates coated with 0.25 μM peptide, 1 × 10^6 PFU ZIKV, absorbance at 450 nm
Protocol: Figure 8 Hc-CATH directly inactivates ZIKV particles by disrupting viral membrane.A, schematic diagram of B–G (Hc-CATH-Vero-pre). B–G, direct inactivation of ZIKV by Hc-CATH. ZIKVs (MOI = 1) were incubated with Hc-CATH (2.5 μM), AC5 (2.5 μM), LL-37 (2.5 μM), or PBS (peptide solvent) at 37 °C for 2 h, and then the ZIKV–PBS mixture and ZIKV–peptide mixture were centrifugated at 100,000g for 70 min. The pellets were washed with PBS and centrifugated at 100,000g for 70 min again. The pellets were resuspended in PBS, added to Vero cells, and incubated for 2 h. Cells were washed with PBS and cultured in fresh DMEM containing 2% FBS. After culture at 37 °C for 48 h, the intracellular ZIKV RNA (B), NS3 protein (C and D), E protein level (E, the scale bar represents 50 μm), and extracellular ZIKV titer (F and G) were tested by qPCR, Western blot, immunofluorescence staining, and plaque-forming assay, respectively. H, binding of Hc-CATH to ZIKV. High-affinity binding plates were coated with 0.25 μM of Hc-CATH, BSA, AC5, or LL-37. Then, 1 × 10^6 PFU of ZIKV was added and incubated. […] Absorbance at 450 nm was measured after reactions were stopped using 0.5 M sulfuric acid. […] After the residual RNase was inactivated, the undigested genomic RNA in the intact ZIKV particles was extracted and quantified by testing the genes of PrM, E, and Cap proteins, respectively. ∗∗p < 0.01 and ∗∗∗p < 0.001. […]

[3] = test system: AXL; experiment: AXL level in A549 cells (Western blot, immunofluorescence); assay type: cell-based, Homo sapiens; details: 1.25, 2.5, and 5 μM, 24 h, with and without ZIKV challenge
Protocol: as §1, with “Figure 4” for “Figure 5”, “in A549” for “in U251”, “B, A549” for “B, U251”, “C, A549” for “C, U251”, “of E and G. E and G, A549” for “of E–G. E–G, U251”
as §2

[4] = cited from earlier work
From the text: Antimicrobial peptides (AMPs), also called host defense peptides, are a group of relatively small cationic peptides. They are an important part of the innate immune system and play an important role in fighting against bacterial infection ([26]). Recently, more and more studies have shown that AMPs can also exert antiviral effects by inhibiting virus adsorption, disrupting virus envelope, and regulating host antiviral immune response ([27], [28], [29]).

KFFKRLLKSVRRAVKKFRKKPRLIGLSTLL [Hc-CATH]
level of AXL in U251 cells [1]: effectively decreased the level of AXL | binding to ZIKV [2]: stronger binding affinity with ZIKV as compared with bovine serum albumin | level of AXL in A549 cells [3]: effectively decreased the level of AXL | cytotoxicity [4]: low cytotoxicity | stability [4]: high stability
